The values that follow come from article PMC3598705, “Evaluation of Toxicity and Biodegradability of Cholinium Amino Acids Ionic Liquids” (PLoS ONE, 2013).

Each structure is given as a SMILES string. Values after ≈ are worked out from the molar mass of the structure shown.

Test [1] has as its target T1, AChE type VI-S (from the electric eel) (Electrophorus electricus, UniProt O42275).
T1 construct: purchased Sigma–Aldrich, USA type VI-S (catalogue number not given)
The test is described as follows: AChE inhibition assay (colorimetric, DTNB reduction). The format is biochemical. The following applies: DTNB 0.5 mM, AChE 0.05 U mL^−1, acetylthiocholine iodide 0.5 mM, 37 °C, phosphate buffer pH 8.0; mean ± SD; read-out: EC50±SD (toxicity toward AChE). The protocol:
A colorimetric assay based on reduction of DTNB was used to measure AChE inhibition as described previously, [24], in the presence of a phosphate buffer system in order to eliminate the effects of pH changes on enzyme activity. Briefly, IL solutions were prepared with 0.2 M phosphate buffer (pH 8.0) in 96-well microtiter plates. The enzyme (0.2 U mL^−1, plus 0.25 mg mL^−1 bovine serum albumin in the same phosphate buffer), and DTNB (2 mM, plus 0.185 mg mL^−1 NaHCO3 in the same phosphate buffer) were added to each well and kept at 37 °C for 5 min, and then the reaction was initiated by adding acetylthiocholine iodide (2 mM in the same phosphate buffer). In the experimental reactions, the final concentrations of DTNB, acetylthiocholine iodide and AChE were 0.5 mM, 0.5 mM and 0.05 U mL^−1, respectively. Except where stated otherwise, the concentration range used to calculate EC50 of the [Ch][AA] ILs was 0–50 mM. However, for strongly alkaline [Ch][AA] ILs such as [Ch][Lys], the maximum concentration used was 20 mM in order to avoid changes in enzyme activity due to pH changes that would be caused if the IL exceeded the buffering capacity of the phosphate buffer. Acidic amino acid-derived ILs ([Ch][Asp] and [Ch][Glu]) were used up to 80 mM. The control compounds cholinium chloride ([Ch][Cl]), [Bmim][BF4] and acetone were used at concentration ranges of 0–80 mM, 0–50 mM and 10 mM–2.5 M, respectively. Control experiments without enzyme were carried out under otherwise identical conditions. Reduction of DTNB was monitored at 405 nm and at 10 second intervals in a microplate reader (Wallac 1420 VICTOR3, PerkinElmer, Singapore) over a period of 5 min. Enzyme activity was expressed as ΔOD min^−1 obtained via linear regression analysis. All assays were performed at least in triplicate.
All data were analyzed by One-Way analysis of variance using SPSS 11.5 (SPSS Inc., USA). EC50 values are presented as mean ± standard deviation (SD) from at least three repeats, and confidence intervals (α = 0.05) of EC50 are also presented. The One-Way ANOVA was used to judge if the difference between the different ILs groups was significant. When the p value was<0.05, the difference was considered to be significant.

The test system of test [2] is E. coli ATCC 8739. Nature of the test: Antimicrobial activity, tube dilution method. Type of test: cell-based, Escherichia coli. The settings on record: four repeated experiments; for MIC: 24 h at 37 °C; for MBC: kills 99.9% or more. The protocol:
(§1) Antimicrobial activity was measured via the tube dilution method as described previously. Briefly, E. coli, S. aureus, S. enteritidis and L. monocytogenes were cultured in Mueller-Hinton broth for 24 h at 37 °C. A microorganism suspension of 10^6 cfu mL^−1 (cfu, colony forming units) was prepared from each culture. IL solutions (31.3–1500 mM) were prepared with sterilized Mueller-Hinton broth, and then were sterilized by filtration (0.45 µm pore-diameter membrane). The various permutations of microorganism suspension (50 µL) and IL solution (50 µL) were mixed in 96-well microtiter plate. Growth of the microorganisms was determined visually after incubation for 24 h at 37 °C. Controls were conducted under the same conditions: negative controls without microorganisms and positive controls without ILs. The lowest concentration at which there was no visible growth (turbidity) was taken as the minimal inhibitory concentration (MIC). Samples of 20 µL from each well were spread onto Mueller-Hinton agar medium with inactivates (0.3% lecithin, 3% polysorbate 80 and 0.1% L-cysteine) and incubated for 48 h at 37 °C. The lowest concentration of the IL that killed 99.9% or more of the test bacterium was taken as the minimum biocidal concentration (MBC).

Test [3] deals with S. enteritidis ATCC 14128. The test is described as follows: Antimicrobial activity, tube dilution method. The format is cell-based, Salmonella enteritidis. The following applies: four repeated experiments; for MIC: 24 h at 37 °C; for MBC: kills 99.9% or more. The protocol:
as §1

Test [4] concerns L. monocytogenes ATCC 19115. The test is described as follows: Antimicrobial activity, tube dilution method. The format is cell-based, Listeria monocytogenes. The following applies: four repeated experiments; for MIC: 24 h at 37 °C; for MBC: kills 99.9% or more. The procedure:
as §1

In test [5] the test system is S. aureus ATCC 29213. Nature of the test: Antimicrobial activity, tube dilution method. The settings on record: four repeated experiments; for MIC: 24 h at 37 °C; for MBC: kills 99.9% or more. Type of test: cell-based, Staphylococcus aureus. The protocol:
as §1

T1 sequence (O42275 24-633): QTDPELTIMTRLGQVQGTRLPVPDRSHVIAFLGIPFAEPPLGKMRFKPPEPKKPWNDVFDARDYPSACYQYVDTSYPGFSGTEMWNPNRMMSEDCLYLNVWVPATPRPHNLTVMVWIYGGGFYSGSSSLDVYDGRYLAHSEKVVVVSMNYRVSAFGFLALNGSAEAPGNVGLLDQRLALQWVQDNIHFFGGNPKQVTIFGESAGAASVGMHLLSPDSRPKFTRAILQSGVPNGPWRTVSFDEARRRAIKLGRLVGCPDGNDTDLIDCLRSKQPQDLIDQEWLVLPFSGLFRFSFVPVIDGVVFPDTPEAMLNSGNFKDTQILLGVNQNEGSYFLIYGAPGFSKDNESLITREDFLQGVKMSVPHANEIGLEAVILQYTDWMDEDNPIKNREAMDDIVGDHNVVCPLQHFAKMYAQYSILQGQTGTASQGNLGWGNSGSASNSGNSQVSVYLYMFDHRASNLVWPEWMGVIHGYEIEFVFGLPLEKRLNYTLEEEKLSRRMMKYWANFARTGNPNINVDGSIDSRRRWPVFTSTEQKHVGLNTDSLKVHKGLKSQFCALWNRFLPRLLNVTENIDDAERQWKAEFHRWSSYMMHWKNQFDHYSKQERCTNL

Regarding `C[N+](C)(C)CCO.N[C@@H](Cc1ccccc1)C(=O)[O-]` [[Ch][Phe]], in test [1], the EC50 worked out at 2.74 ± 0.1 mM. The MIC was found to be 31.3 mM in test [2], 31.3 mM in test [3], 46.9 mM in test [4] and 62.5 mM in test [5]. For the same compound, the MBC is 46.9 mM in test [2], 46.9 mM in test [3], 62.5 mM in test [4] and 93.8 mM in test [5].

On to `C[N+](C)(C)CCO.[Cl-]` [[Ch][Cl], cholinium chloride, reference compound], for which the EC50 in test [1] worked out at 3.16 ± 0.09 mM. The MIC in test [2], in test [3], in test [4] and in test [5] was above 750 mM in each case. The MBC in test [2], in test [3], in test [4] and in test [5] was above 750 mM in each case.

For the compound `C[N+](C)(C)CCO.N=C(N)NCCC[C@H](N)C(=O)[O-]` [[Ch][Arg]], in test [1], the EC50 was determined as 3.67 ± 0.07 mM. Besides, the MIC in test [2] worked out at 46.9 mM; in test [3], 46.9 mM; in test [4], 93.8 mM; in test [5] it was 93.8 mM. The MBC in test [2] amounted to 93.8 mM; in test [3] it was 62.5 mM; in test [4], 125 mM; in test [5] it was 125 mM.

For the compound `CC(C)[C@H](N)C(=O)O` [[Ch][Val]], the EC50 in test [1] was found to be 3.06 ± 0.12 mM. The MIC worked out at 46.9 mM (≈ 5490 µg/mL) in test [2], 46.9 mM (≈ 5490 µg/mL) in test [3], 93.8 mM (≈ 11000 µg/mL) in test [4] and 93.8 mM (≈ 11000 µg/mL) in test [5]. The MBC stood at 62.5 mM (≈ 7320 µg/mL) in test [2], 62.5 mM (≈ 7320 µg/mL) in test [3], 125 mM (≈ 14600 µg/mL) in test [4] and 125 mM (≈ 14600 µg/mL) in test [5].

As for `CCC(C)C(N)C(=O)[O-].C[N+](C)(C)CCO` (stereo not drawn) [[Ch][Ile]], in test [1], the EC50 worked out at 3.57 ± 0.07 mM. Also, the MIC is given as 46.9 mM in test [2], 46.9 mM in test [3], 46.9 mM in test [4] and 93.8 mM in test [5]. Moreover, the MBC in test [2] came to 62.5 mM; in test [3], 62.5 mM; in test [4], 62.5 mM; in test [5], 125 mM.

With `CC(C)C[C@H](N)C(=O)[O-].C[N+](C)(C)CCO` [[Ch][Leu]], in test [1], the EC50 amounted to 3.36 ± 0.05 mM. Besides, the MIC in test [2] is 46.9 mM; in test [3], 46.9 mM; in test [4], 46.9 mM; in test [5] it was 93.8 mM. In addition, the MBC in test [2] is recorded as 62.5 mM; in test [3] it was 62.5 mM; in test [4], 62.5 mM; in test [5], 125 mM.

As for `C[N+](C)(C)CCO.C[N+](C)(C)CCO.N[C@@H](CC(=O)[O-])C(=O)[O-]` [[Ch][Asp]], the EC50 in test [1] came to 3.81 ± 0.09 mM. In addition, the MIC is 500 mM in test [2], 125 mM in test [3], 500 mM in test [4] and 750 mM in test [5]. Further, the MBC was determined as 750 mM in test [2], 188 mM in test [3], 750 mM in test [4] and 750 mM in test [5].
